{"source": "patent US11529363B2", "about": "“Methods of treating cancer in pediatric patients” (ARIAD Pharmaceuticals, Inc., priority 2018, dated 2022)", "key": {"ALK+ NSCLC": {"tested_on": "ALK+ NSCLC", "test": "phase 2 study AP26113-13-201 (ALTA trial) in adult patients with ALK+ NSCLC refractory to crizotinib", "format": "in vivo, human", "method": "In the pivotal phase 2 study in adults with ALK+ NSCLC, 2 dose regimens were evaluated: (1) 90 mg QD; (2) 90 mg QD in Week 1 followed by escalation to 180 mg QD for those patients tolerating the 7-day 90 mg QD lead in. […] To mitigate the risk for EOPEs in pediatric patients, the doses of brigatinib selected for Week 1 of treatment are informed by adult clinical experience and designed to achieve systemic exposures not exceeding those at the 90 mg daily dose in adults."}, "[1]": {"test": "cross-study comparison of brigatinib exposure, oral solution (AP26113-13-104) vs tablet (AP26113-16-110)", "format": "in vivo, human"}, "[2]": {"tested_on": "secondary ALK mutants of EML4-ALK", "details": "at relevant levels of exposure achieved in patients; cited from earlier work"}, "ALK": {"biological_target": "ALK (Homo sapiens, UniProt Q9UM73)", "sequence (Q9UM73 19-1620)": "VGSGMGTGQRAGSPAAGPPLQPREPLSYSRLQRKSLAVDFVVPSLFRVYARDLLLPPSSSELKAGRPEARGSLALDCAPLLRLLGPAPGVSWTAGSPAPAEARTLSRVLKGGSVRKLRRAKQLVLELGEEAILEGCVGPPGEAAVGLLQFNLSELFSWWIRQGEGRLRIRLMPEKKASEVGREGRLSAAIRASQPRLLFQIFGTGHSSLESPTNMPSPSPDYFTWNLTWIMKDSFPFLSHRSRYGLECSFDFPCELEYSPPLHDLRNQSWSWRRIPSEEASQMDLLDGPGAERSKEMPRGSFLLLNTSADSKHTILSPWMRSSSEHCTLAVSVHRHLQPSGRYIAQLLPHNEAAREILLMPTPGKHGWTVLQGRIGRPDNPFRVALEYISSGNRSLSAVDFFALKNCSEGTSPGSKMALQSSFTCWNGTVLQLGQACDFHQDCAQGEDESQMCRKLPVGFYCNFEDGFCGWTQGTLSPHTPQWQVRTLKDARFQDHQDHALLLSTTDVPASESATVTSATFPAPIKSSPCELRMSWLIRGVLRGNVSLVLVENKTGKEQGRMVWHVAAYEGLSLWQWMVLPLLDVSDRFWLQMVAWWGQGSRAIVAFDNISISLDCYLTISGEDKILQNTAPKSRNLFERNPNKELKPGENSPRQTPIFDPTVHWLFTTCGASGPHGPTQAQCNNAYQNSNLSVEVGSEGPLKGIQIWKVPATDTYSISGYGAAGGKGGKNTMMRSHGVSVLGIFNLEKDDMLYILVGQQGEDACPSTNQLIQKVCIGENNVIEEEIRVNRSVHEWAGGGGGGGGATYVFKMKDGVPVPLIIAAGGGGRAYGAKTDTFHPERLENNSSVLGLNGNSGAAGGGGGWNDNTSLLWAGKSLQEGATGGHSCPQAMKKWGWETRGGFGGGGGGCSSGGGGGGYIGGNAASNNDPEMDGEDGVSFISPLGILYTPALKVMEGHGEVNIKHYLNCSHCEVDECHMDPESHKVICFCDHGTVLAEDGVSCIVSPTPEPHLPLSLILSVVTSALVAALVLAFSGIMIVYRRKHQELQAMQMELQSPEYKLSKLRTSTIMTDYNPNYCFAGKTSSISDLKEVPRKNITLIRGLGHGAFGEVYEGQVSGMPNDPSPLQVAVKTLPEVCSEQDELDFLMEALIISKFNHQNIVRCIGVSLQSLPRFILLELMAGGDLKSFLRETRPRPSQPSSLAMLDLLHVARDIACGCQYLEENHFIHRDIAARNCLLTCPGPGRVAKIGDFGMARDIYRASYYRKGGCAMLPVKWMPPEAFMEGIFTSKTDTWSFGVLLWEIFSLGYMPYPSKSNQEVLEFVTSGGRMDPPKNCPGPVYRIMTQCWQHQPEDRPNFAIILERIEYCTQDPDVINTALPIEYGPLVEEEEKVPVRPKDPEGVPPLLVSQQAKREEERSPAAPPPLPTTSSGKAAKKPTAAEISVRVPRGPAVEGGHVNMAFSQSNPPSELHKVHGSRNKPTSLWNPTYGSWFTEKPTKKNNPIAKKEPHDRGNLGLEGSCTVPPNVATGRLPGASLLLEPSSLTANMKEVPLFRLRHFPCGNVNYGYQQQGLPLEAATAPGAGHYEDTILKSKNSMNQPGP", "details": "in vitro studies; cited from earlier work"}, "[3]": {"test": "first-in-human Study AP26113-11-101, tolerated dose in adults", "method": "One additional dose level is planned if the 40 mg/m^2 QD→80 mg/m^2 QD dose is tolerated."}, "[4]": {"details": "pediatric, 280 mg/m^2; cited from earlier work"}, "[5]": {"details": "90→180 mg QD, adult ALK+ NSCLC refractory to crizotinib"}}}
{"smiles": "COc1cc(N2CCC(N3CCN(C)CC3)CC2)ccc1Nc1ncc(Cl)c(Nc2ccccc2P(C)(C)=O)n1", "note": "[brigatinib, 5-chloro-N4-[2-(dimethylphosphoryl)phenyl]-N2-{2-methoxy-4-[4-(4-methylpiperazin-1-yl)piperidin-1-yl]phenyl}pyrimidine-2,4-diamine]", "values": [{"measurement": "duration of response (DOR)", "setting": "ALK+ NSCLC; [5]", "result": 13.8, "unit": "months"}, {"measurement": "investigator-assessed confirmed ORR", "setting": "ALK+ NSCLC; [5]", "result": 55.5, "unit": "%"}, {"measurement": "progression-free survival (PFS)", "setting": "ALK+ NSCLC; [5]", "result": 15.6, "unit": "months"}, {"measurement": "PFS at 180 mg QD versus 90 mg QD", "setting": "ALK+ NSCLC; pivotal phase 2 study, adults with ALK+ NSCLC", "result": "longer PFS at 180 mg QD"}, {"measurement": "relative bioavailability of oral solution, AUC higher in reference to the tablet", "setting": "[1]; oral solution vs tablet, adults", "result": "approximately 42%"}, {"measurement": "oral solution/tablet AUC ratio", "setting": "[1]; relative bioavailability factor", "result": 1.42}, {"measurement": "activity against 17 secondary ALK mutants of EML4-ALK", "setting": "[2]", "result": "maintain substantial activity against all 17 secondary ALK mutants"}, {"measurement": "ALK inhibitor potency compared with crizotinib, ceritinib and alectinib", "setting": "ALK", "result": "more potent ALK inhibitor than crizotinib, ceritinib, and alectinib"}, {"measurement": "highest acceptably tolerated dose", "setting": "[3]", "result": 240, "unit": "mg QD"}]}
{"smiles": "C[C@@H](Oc1cc(-c2cnn(C3CCNCC3)c2)cnc1N)c1c(Cl)ccc(F)c1Cl", "note": "[crizotinib]", "values": [{"measurement": "systemic exposure at MTD/RP2D higher than adult clinical exposures at 250 mg BID", "setting": "[4]", "result": "~50", "unit": "%"}]}
